What was measured:
[1] = Stability of theacrine solution 1.3 mg/ml in USP Type I glass vials, 15 weeks at RT and 40° C.; assay type: physicochemical; conditions: 1.3 mg/ml solution, in % (unit assumed)
Description: The Table 1 below is data indicating assay results for stability of a theacrine solution prepared at 1.3 mg/ml and stored in USP Type I Glass vials for 15 weeks at RT and 40° C.

[2] = Stability of theacrine solutions 0.1%, 0.2%, 0.4% in USP type I glass vials, 3 months at 40° C.; assay type: physicochemical; conditions: Storage 40 C., in % (unit assumed)

SMILES: Cn1c(=O)c2c(n(C)c1=O)n(C)c(=O)n2C [Theacrine, 1,3,7,9-Tetramethyluric acid]
- Assay ([1]; Room Temperature (RT), 1-wk): 98.7
- Assay ([1]; Room Temperature (RT), 2-wk): 100.1
- Assay ([1]; Room Temperature (RT), 4-wk): 99.2
- Assay ([1]; Room Temperature (RT), 8-wk): 99.9
- Assay ([1]; Room Temperature (RT), 15-wk): 99.3
- Assay ([1]; Room Temperature (RT), Initial): 99.6
- Assay ([1]; Storage 40 C., 1-wk): 98.2
- Assay ([1]; Storage 40 C., 2-wk): 98.9
- Assay ([1]; Storage 40 C., 4-wk): 98.7
- Assay ([1]; Storage 40 C., 8-wk): 98.6
- Assay ([1]; Storage 40 C., 15-wk): 98.0
- Assay ([1]; Storage 40 C., Initial): 99.6
- Assay value ([2]; 0.1% Solution, 1-M): 101
- Assay value ([2]; 0.1% Solution, 2-M): 100.4
- Assay value ([2]; 0.1% Solution, 3-M): 100.7
- Assay value ([2]; 0.1% Solution, 10-d): 100.4
- Assay value ([2]; 0.1% Solution, Initial): 100.6
- Assay value ([2]; 0.2% Solution, 1-M): 98.9
- Assay value ([2]; 0.2% Solution, 2-M): 97.5
- Assay value ([2]; 0.2% Solution, 3-M): 99.4
- Assay value ([2]; 0.2% Solution, 10-d): 98.6
- Assay value ([2]; 0.2% Solution, Initial): 99.8
- Assay value ([2]; 0.4% Solution, 1-M): 94.9
- Assay value ([2]; 0.4% Solution, 2-M): 95.3
- Assay value ([2]; 0.4% Solution, 3-M): 95.8
- Assay value ([2]; 0.4% Solution, 10-d): 92.3
- Assay value ([2]; 0.4% Solution, Initial): 94.1
